These results are taken from ChEMBL document CHEMBL3870356, “Investigation of a Bicyclo[1.1.1]pentane as a Phenyl Replacement within an LpPLA2 Inhibitor” (ACS Med Chem Lett, 2017).

pIC50: −log10 of the molar value. ≈ marks a conversion by molar mass, not a printed value.

A short description of data set [1]: Kinetic solubility of the compound by chemiluminescent nitrogen detection assay.
Data set [2] can be described thus: Lipophilicity, logD of the compound at pH 7.4 by chromatography. It is filed as physicochemical. To be noted: buffer.
Data set [3] is described as follows: Thermodynamic solubility of the compound in fasted state simulated intestinal fluid. It is filed as ADME. To be noted: read-out: Therm_solubility.
Data set [4] in a line: Clearance in human liver microsomes. It is filed as ADME. For orientation: Microsomes from liver hold many membrane-bound enzymes, among them those of drug oxidation.
Data set [5] in a line: Permeability of the compound at pH 7.4 by PAMPA. It is filed as ADME. To be noted: read-out: permeability. In general terms: PAMPA measures passive passage across an artificial lipid membrane.
In data set [6] the target is T1, Platelet-activating factor acetylhydrolase (Homo sapiens, UniProt Q13093).
T1 sequence (Q13093 whole entry): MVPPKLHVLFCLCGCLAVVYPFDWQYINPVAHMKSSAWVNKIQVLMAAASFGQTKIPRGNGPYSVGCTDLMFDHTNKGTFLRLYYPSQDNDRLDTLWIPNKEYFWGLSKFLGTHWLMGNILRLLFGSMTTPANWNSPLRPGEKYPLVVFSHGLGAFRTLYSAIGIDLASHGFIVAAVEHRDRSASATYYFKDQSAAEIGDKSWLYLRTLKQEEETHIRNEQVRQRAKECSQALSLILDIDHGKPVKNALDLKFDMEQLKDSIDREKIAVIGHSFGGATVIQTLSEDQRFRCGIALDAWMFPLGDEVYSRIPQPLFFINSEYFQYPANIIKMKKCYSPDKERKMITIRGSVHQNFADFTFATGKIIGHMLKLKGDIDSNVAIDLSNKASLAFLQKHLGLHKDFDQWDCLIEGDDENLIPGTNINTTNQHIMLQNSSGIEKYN
Nature of the data set: Inhibition of human recombinant LpPLA2.

`COCCN1CCC(N(CC23CC(c4ccc(C(F)(F)F)cc4)(C2)C3)C(=O)Cn2c(SCc3cccc(F)c3F)cc(=O)c3ccccc32)CC1`: the solubility (kinetic) in data set [1] was found to be 32 µM (≈ 23.2 µg/mL). In data set [2], this molecule came in with a chromatographic logD of 7.06. Further, the solubility thermodynamic in data set [3] is 635 µg/mL (≈ 875 µM). The CLH in data set [4] was found to be 0.76 mL/min/g.

In data set [1], `CCN(CC)CCN(CC12CC(c3ccc(C(F)(F)F)cc3)(C1)C2)C(=O)Cn1c(SCc2ccc(F)cc2)nc(=O)c2c1CCC2` yielded a solubility (kinetic) of 74 µM (≈ 48.6 µg/mL). This molecule also registered a chromatographic logD in data set [2] of 7. Also, in data set [5], the Papp worked out at 70.5 ×10⁻⁶ cm/s. The solubility thermodynamic in data set [3] is greater than 1000 µg/mL. Besides, the pIC50 in data set [6] was 9.40. The molecule further gave a CLH in data set [4] of 1.22 mL/min/g.

As to `CCN(CC)CCN(Cc1ccc(-c2ccc(C(F)(F)F)cc2)cc1)C(=O)Cn1c(SCc2ccc(F)cc2)nc(=O)c2c1CCC2` [DARAPLADIB], the kinetic solubility in data set [1] came to 8 µM (≈ 5.33 µg/mL). In addition, in data set [3], the solubility thermodynamic is 399 µg/mL (≈ 598 µM).

In turn, `COCCN1CCC(N(Cc2ccc(-c3ccc(C(F)(F)F)cc3)cc2)C(=O)Cn2c(SCc3cccc(F)c3F)cc(=O)c3ccccc32)CC1` [RILAPLADIB] displayed a kinetic solubility in data set [1] of less than 1 µM. In data set [2], the chromatographic logD stood at 6.74. The solubility thermodynamic in data set [3] was 203 µg/mL (≈ 276 µM).

What is called solubility (kinetic) is the concentration staying in solution when a stock, usually in DMSO, is diluted into the medium. What is called chromatographic logD is a lipophilicity value derived from retention on a column. The low end stands for a more hydrophilic compound, the high end for a more lipophilic compound. Broadly, the pIC50 is −log10 of the IC50, conventionally taken in molar units.
